How the values were obtained:
[1] = target: T1, Ire1KR32 (cytosolic kinase/RNase portion of Ire1) (Saccharomyces cerevisiae, UniProt P32361); assay: RNase activation, hyperbolic fit of kobs versus cofactor ([…]P-RNA hairpin); assay type: biochemical; settings: 3 µM Ire1KR32, 2 mM Mg2+, pH 7.4, 30 °C; allosteric activator in kinase ATP pocket
T1 construct: cytoplasmic kinase + RNase domains with N-terminal 32-aa extension from the linker to the transmembrane segment; GST fusion (pGEX-6P-2) in E. coli, GST cleaved by PreScission; autophosphorylated (~20 phosphates); homo-oligomerizes
T1 sequence (P32361 641-1115): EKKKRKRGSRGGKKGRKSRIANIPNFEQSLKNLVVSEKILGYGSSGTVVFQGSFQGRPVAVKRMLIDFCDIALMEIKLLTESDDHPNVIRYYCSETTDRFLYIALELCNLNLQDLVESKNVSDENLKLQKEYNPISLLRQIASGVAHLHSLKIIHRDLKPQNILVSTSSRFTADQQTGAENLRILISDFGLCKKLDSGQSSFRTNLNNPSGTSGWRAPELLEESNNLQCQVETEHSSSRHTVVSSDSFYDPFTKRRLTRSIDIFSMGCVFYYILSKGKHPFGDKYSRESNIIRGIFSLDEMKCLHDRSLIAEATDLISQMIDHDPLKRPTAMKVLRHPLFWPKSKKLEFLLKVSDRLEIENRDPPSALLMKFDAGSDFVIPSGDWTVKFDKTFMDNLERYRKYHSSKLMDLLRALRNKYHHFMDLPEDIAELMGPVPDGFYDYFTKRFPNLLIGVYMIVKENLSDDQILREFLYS

[2] = target: T1, Ire1KR32 (cytosolic kinase/RNase portion of Ire1); assay: inhibition of ADP-stimulated RNase cleavage of […]-RNA hairpin; assay type: biochemical; settings: competition with 0.2 mM ADP, 3 µM Ire1KR32, 2 mM Mg2+, pH 7.4, 30 °C; kinase ATP pocket; paper prints mmol for mM

| SMILES | Kcof (apparent cofactor binding constant) [1] | Ki [2] [mM] |
| --- | --- | --- |
| Nc1ncnc2c1ncn2[C@@H]1O[C@H](COP(=O)(O)OP(=O)(O)O)[C@@H](O)[C@H]1O [ADP] | ADP bound with an apparent affinity similar to that of ATP | – |
| Nc1ncnc2c1ncn2[C@@H]1O[C@H](COP(=O)(O)OP(=O)(O)S)[C@@H](O)[C@H]1O (some centres unmarked) [ADPβS] | – | 0.2 ± 0.07 |
| Nc1ncnc2c1ncn2[C@@H]1O[C@H](COP(=O)(O)O)[C@@H](O)[C@H]1O [AMP] | the apparent affinity for AMP was tenfold lower than that observed for ATP | – |
| c1cc(Nc2cc(C3CC3)[nH]n2)nc(Nc2ccc3[nH]cnc3c2)n1 [APY29] | APY24 and APY29 activated Ire1 as well as or better than ADP | – |
| Nc1ncnc2c1ncn2[C@@H]1O[C@H](COP(=O)(O)OP(=O)(O)OP(=O)(O)O)[C@@H](O)[C@H]1O [ATP] | the apparent affinity for AMP was tenfold lower than that observed for ATP | 0.1 ± 0.04 |
| Nc1ncnc2c1ncn2[C@@H]1O[C@H](COP(=O)(O)OP(=O)(O)OP(O)(O)=S)[C@@H](O)[C@H]1O [ATPγS] | ATPγS bound to Ire1 slightly more weakly than ATP | – |
| CCN(CC)CCNC(=O)c1c(C)[nH]c(/C=C2\C(=O)Nc3ccc(F)cc32)c1C [sunitinib] | activated Ire1KR32 to a similar extent as AMP and ATP | – |

Source: article PMC3158555, “Cofactor-mediated conformational control in the bifunctional kinase/RNase Ire1” (BMC Biology, 2011)
